# In patent US20100190982A1, “PROCESS FOR THE PREPARATION OF LAMIVUDINE FORM I” (priority 2007, published 2010):
# Where two headings read alike, the source gives them in different places.
# Key:
# [1] = Drying of Form I crystals at 80° C. (under reduced pressure), polymorphic change; type: physicochemical; conditions: for conversion of Form I to Form II on drying: drying at 80° C. (under reduced pressure)
# Description: (§1) Therefore our endeavour was to prepare Lamivudine polymorph Form I, which is storage stable and remains unchanged during preparation of solid doses form. […] (under reduced pressure). Data has been generated up to 72 h drying at 80° C.
# In the present invention, the Lamivudine polymorphic Form I obtained is 100% pure.
# [2] = Grinding / milling of Form I crystals, polymorphic change; type: physicochemical
# Description: as §1
# [3] = Storage of Form I crystals, polymorphic change; type: physicochemical
# Description: as §1
# [4] = as stated in U.S. Pat. No. 5,905,082, cited from earlier work
# [5] = Stability testing at 60° C.; type: physicochemical; conditions: two months
conversion of Form I to Form II on drying [1],conversion to Form II on storage [3],polymorphic change on drying ([1]; up to 72 h drying at 80° C. (under reduced pressure)),chemical degradation in stability testing [5],polymorphic change in stability testing [5],SMILES,conversion to Form II when milled/grinded ([2]; milled/grinded),relative stability of polymorphic form ([4]; listed as Form I crystals),conversion of Form I to Form II in pharmaceutical unit operations ([4]; milling/grinding),relative stability of polymorphic form [4],conversion of Form I to Form II on drying ([1]; listed as Lamivudine polymorphic Form I),change in polymorphic form on grinding ([2]; grinded neat for 5-15 min at 20-30° C.)
partially converted into Form II,partially converted into Form II,–,–,–,Nc1ccn([C@@H]2CS[C@H](CO)O2)c(=O)n1 [Lamivudine polymorphic Form I prepared by crystallisation fr],partial conversion to Form II was observed,less stable,may cause conversion of Form I to Form II,–,–,–
–,–,–,–,–,"Nc1ccn([C@@H]2CS[C@H](CO)O2)c(=O)n1 [Form II, Lamivudine]",–,–,–,more stable polymorphic form,–,–
do not convert to Form II,–,no polymorphic change has been observed,neither chemical degradation,nor polymorphic change was observed,Nc1ccn([C@@H]2CS[C@H](CO)O2)c(=O)n1 [Lamivudine Form I crystals prepared by the process of instan],–,–,–,–,does not change into other polymorphic form,no change in polymorphic form has been observed
